ChEMBL document CHEMBL5052842, “Pharmaceutical compounds and their use as inhibitors of ubiquitin specific protease 19 (usp19)” (2020)

Each molecule was assayed against T1, Ubiquitin carboxyl-terminal hydrolase 19 (Homo sapiens, UniProt O94966) (assay: Inhibition of C-terminal His6-tagged recombinant human USP19 using iso-peptide ubiquitin-Lys-TAMRA as substrate incubated for 30 mins and measured after 90 mins by fluorescent polarization assay).
T1 sequence (O94966 whole entry): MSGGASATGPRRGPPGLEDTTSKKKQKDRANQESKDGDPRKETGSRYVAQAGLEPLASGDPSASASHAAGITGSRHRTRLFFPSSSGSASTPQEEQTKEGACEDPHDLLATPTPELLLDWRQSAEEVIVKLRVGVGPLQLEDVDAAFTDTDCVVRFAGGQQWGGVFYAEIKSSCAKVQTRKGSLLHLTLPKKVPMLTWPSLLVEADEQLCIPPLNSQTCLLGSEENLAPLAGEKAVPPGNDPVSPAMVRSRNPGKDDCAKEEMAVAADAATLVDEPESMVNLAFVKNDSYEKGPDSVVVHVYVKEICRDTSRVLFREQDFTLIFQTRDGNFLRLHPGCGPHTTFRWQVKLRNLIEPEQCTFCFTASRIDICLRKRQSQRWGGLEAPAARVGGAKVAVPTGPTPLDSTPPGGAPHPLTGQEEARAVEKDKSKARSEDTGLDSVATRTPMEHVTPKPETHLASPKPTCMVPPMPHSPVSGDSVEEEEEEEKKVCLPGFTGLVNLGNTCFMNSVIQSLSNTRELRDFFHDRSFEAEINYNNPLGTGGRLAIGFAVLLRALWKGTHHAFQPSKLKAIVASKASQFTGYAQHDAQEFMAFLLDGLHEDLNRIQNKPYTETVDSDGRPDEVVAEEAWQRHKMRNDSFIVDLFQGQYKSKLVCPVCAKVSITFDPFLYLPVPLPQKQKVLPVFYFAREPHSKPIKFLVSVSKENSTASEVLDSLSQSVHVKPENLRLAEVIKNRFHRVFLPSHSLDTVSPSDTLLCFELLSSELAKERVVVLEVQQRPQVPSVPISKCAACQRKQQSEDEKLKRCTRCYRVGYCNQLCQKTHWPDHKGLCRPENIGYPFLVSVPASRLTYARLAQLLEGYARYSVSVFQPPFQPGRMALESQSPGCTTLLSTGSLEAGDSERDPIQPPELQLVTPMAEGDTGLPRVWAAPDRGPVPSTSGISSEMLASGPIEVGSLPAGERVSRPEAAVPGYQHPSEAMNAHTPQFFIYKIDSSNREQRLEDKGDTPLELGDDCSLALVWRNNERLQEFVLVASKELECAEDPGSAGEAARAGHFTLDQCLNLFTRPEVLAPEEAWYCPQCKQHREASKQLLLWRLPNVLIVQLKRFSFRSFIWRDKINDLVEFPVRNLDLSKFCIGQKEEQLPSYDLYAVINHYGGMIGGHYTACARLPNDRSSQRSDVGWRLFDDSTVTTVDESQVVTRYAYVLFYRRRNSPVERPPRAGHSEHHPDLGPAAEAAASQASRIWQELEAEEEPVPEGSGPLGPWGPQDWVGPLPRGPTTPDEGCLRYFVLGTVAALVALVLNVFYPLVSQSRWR

Row | Structure (SMILES) | IC50
1 | COc1ccccc1-c1cc(=O)n(C[C@]2(O)CCN(C(=O)N3CCNC[C@H]3c3cccc(F)c3)CC23CCCC3)cn1 | < 500 nM
2 | O=C(N1CC[C@@](O)(Cn2cnc(N3CCC(F)(F)CC3)cc2=O)C2(CCCC2)C1)N1CCNC[C@H]1c1ccccc1 | < 500 nM
3 | N[C@@H]1CCN(C(=O)N2CC[C@@](O)(Cn3cnc(-c4ccccc4)cc3=O)C3(CCCC3)C2)[C@H](c2ccccc2)C1 | < 500 nM
4 | O=C(N1CC[C@@](O)(Cn2cnc(-c3ccccc3C(F)(F)F)cc2=O)C2(CCCC2)C1)N1CCNC[C@H]1c1ccccc1 | < 500 nM
5 | O=C(N1CC[C@@](O)(Cn2cnc(-c3ccc(OC4CC4)cc3)cc2=O)C2(CCCC2)C1)N1CCNC[C@H]1c1ccccc1 | < 500 nM
6 | O=C(N1CC[C@@](O)(Cn2cnc(C3CC3)cc2=O)C2(CCCC2)C1)N1CCNC[C@H]1c1cccc(F)c1 | < 500 nM
7 | O=C(N1CC[C@@](O)(Cn2cnc(-c3ccccc3)cc2=O)C2(CCCC2)C1)N1CCNCC1c1ccc(F)c(F)c1 (stereo partly specified) | < 500 nM
8 | O=C1CN(C(=O)N2CC[C@@](O)(Cn3cnc(-c4ccccc4)cc3=O)C3(CCCC3)C2)[C@H](c2ccccc2)CN1 | < 500 nM
9 | O=C(N1CC[C@@](O)(Cn2cnc(N3CCCC(F)(F)C3)cc2=O)C2(CCCC2)C1)N1CCNC[C@H]1c1ccccc1 | < 500 nM
10 | O=C(N1CC[C@@](O)(Cn2cnc(N3CCCCC3)cc2=O)C2(CCCC2)C1)N1CCNC[C@H]1c1ccccc1 | < 500 nM
11 | O=C(N1CC[C@@](O)(Cn2cnc(-c3ccccc3)cc2=O)C2(CCCC2)C1)N1CCNCC1c1ccccc1F (stereo partly specified) | < 500 nM
12 | Cc1cccc(F)c1-c1cc(=O)n(C[C@]2(O)CCN(C(=O)N3CCNC[C@H]3c3ccccc3)CC23CCCC3)cn1 | < 500 nM
13 | Cc1ccc(-c2cc(=O)n(C[C@]3(O)CCN(C(=O)N4CCNC[C@H]4c4ccccc4)CC34CCCC4)cn2)cc1 | < 500 nM
14 | O=C(N1CC[C@@](O)(Cn2cnc(-c3cccc(F)c3)cc2=O)C2(CCCC2)C1)N1CCNC[C@H]1c1cccc(F)c1 | < 500 nM
15 | O=C(N1CC[C@@](O)(Cn2cnc(-c3ccc4c(c3)OCC4)cc2=O)C2(CCCC2)C1)N1CCNC[C@H]1c1ccccc1 | < 500 nM
16 | COc1c(F)cccc1-c1cc(=O)n(C[C@]2(O)CCN(C(=O)N3CCNC[C@H]3c3ccccc3)CC23CCCC3)cn1 | < 500 nM
17 | O=C(N1CC[C@@](O)(Cn2cnc(-c3ccccc3)cc2=O)C2(CCCC2)C1)N1CCNCC1c1cc(F)cc(F)c1 (stereo partly specified) | < 500 nM
18 | O=C(N1CC[C@@](O)(Cn2cnc(-c3ccccc3)cc2=O)C2(CCCC2)C1)N1CCNC[C@H]1c1ccc(F)cc1F | < 500 nM
19 | O=C(N1CC[C@@](O)(Cn2cnc(-c3ccccc3OC(F)F)cc2=O)C2(CCCC2)C1)N1CCNC[C@H]1c1ccccc1 | < 500 nM
20 | O=C(N1CC[C@@](O)(Cn2cnc(-c3cccs3)cc2=O)C2(CCCC2)C1)N1CCNC[C@H]1c1ccccc1 | < 500 nM
21 | O=C(N1CC[C@@](O)(Cn2cnc(-c3ccc(Cl)cc3)cc2=O)C2(CCCC2)C1)N1CCNC[C@H]1c1ccccc1 | < 500 nM
22 | O=C(N1CC[C@@](O)(Cn2cnc(-c3ccccc3OC(F)(F)F)cc2=O)C2(CCCC2)C1)N1CCNC[C@H]1c1ccccc1 | < 500 nM
23 | O=C(N1CC[C@@](O)(Cn2cnc(-c3ccccc3OC3CC3)cc2=O)C2(CCCC2)C1)N1CCNC[C@H]1c1ccccc1 | < 500 nM
24 | O=C(N1CC[C@@](O)(Cn2cnc(-c3ccccc3)cc2=O)C2(CCCC2)C1)N1CCNCC1c1cccs1 (stereo partly specified) | < 500 nM
25 | O=C(N1CC[C@@](O)(Cn2cnc(N3CCC(F)(F)C3)cc2=O)C2(CCCC2)C1)N1CCNC[C@H]1c1ccccc1 | < 500 nM
26 | N=S1(=O)CCN(C(=O)N2CC[C@@](O)(Cn3cnc(-c4ccccc4)cc3=O)C3(CCCC3)C2)[C@H](c2cc(F)ccc2F)C1 (stereo partly specified) | < 500 nM
27 | O=C(N1CC[C@@](O)(Cn2cnc(N3CC(F)(F)C3)cc2=O)C2(CCCC2)C1)N1CCNC[C@H]1c1ccccc1 | < 500 nM
28 | COc1cccc(F)c1-c1cc(=O)n(C[C@]2(O)CCN(C(=O)N3CCNC[C@H]3c3ccccc3)CC23CCCC3)cn1 | < 500 nM
29 | O=C(N1CC[C@@](O)(Cn2cnc(-c3ccc4c(c3)COC4)cc2=O)C2(CCCC2)C1)N1CCNC[C@H]1c1ccccc1 | < 500 nM

Continued, values first:

Row | IC50 | Structure (SMILES)
30 | < 500 nM | Cn1ccc(-c2cc(=O)n(C[C@]3(O)CCN(C(=O)N4CCNC[C@H]4c4ccccc4)CC34CCCC4)cn2)n1
31 | < 500 nM | O=C(N1CC[C@@](O)(Cn2cnc(-c3ccccc3F)cc2=O)C2(CCCC2)C1)N1CCNC[C@H]1c1cc(F)cc(F)c1
32 | < 500 nM | O=C(N1CC[C@@](O)(Cn2cnc(-c3ccccc3)cc2=O)C2(CCCC2)C1)N1CCNC[C@H]1c1cc(F)ccc1F
33 | < 500 nM | COc1ccc(-c2cc(=O)n(C[C@]3(O)CCN(C(=O)N4CCNC[C@H]4c4ccccc4)CC34CCCC4)cn2)s1
34 | < 500 nM | O=C(N1CC[C@@](O)(Cn2cnc(N3CCC(F)CC3)cc2=O)C2(CCCC2)C1)N1CCNC[C@H]1c1ccccc1
35 | < 500 nM | C[C@@]1(c2ccccc2)CNCCN1C(=O)N1CC[C@@](O)(Cn2cnc(-c3ccccc3)cc2=O)C2(CCCC2)C1
36 | < 500 nM | O=C(N1CC[C@@](O)(Cn2cnc(-c3cccc(F)c3)cc2=O)C2(CCCC2)C1)N1CCNC[C@H]1c1cc(F)ccc1F
37 | < 500 nM | Cc1cccc(-c2cc(=O)n(C[C@]3(O)CCN(C(=O)N4CCNC[C@H]4c4cc(F)ccc4F)CC34CCCC4)cn2)c1
38 | < 500 nM | O=C(N1CC[C@@](O)(Cn2cnc(-c3ccccc3F)cc2=O)C2(CCCC2)C1)N1CCNC[C@H]1c1cc(F)ccc1F
39 | < 500 nM | COc1ccccc1-c1cc(=O)n(C[C@]2(O)CCN(C(=O)N3CCNC[C@H]3c3cc(F)ccc3F)CC23CCCC3)cn1
40 | < 500 nM | N[C@H]1CCN(C(=O)N2CC[C@@](O)(Cn3cnc(-c4ccccc4)cc3=O)C3(CCCC3)C2)[C@H](c2ccccc2)C1
41 | < 500 nM | O=C(N1CC[C@@](O)(Cn2cnc(-c3ccccc3F)cc2=O)C2(CCCC2)C1)N1CCNC[C@H]1c1cccc(F)c1
42 | < 500 nM | O=C(N1CC[C@@](O)(Cn2cnc(N3CC4CC4C3)cc2=O)C2(CCCC2)C1)N1CCNC[C@H]1c1ccccc1 (stereo partly specified)
43 | < 500 nM | O=C(N1CC[C@@](O)(Cn2ccc(-c3ccccc3F)cc2=O)C2(CCCC2)C1)N1CCNC[C@H]1c1cccc(F)c1
44 | < 500 nM | Cn1nc(C(F)(F)F)cc1-c1cc(=O)n(C[C@]2(O)CCN(C(=O)N3CCNC[C@H]3c3ccccc3)CC23CCCC3)cn1
45 | < 500 nM | O=C(N1CC[C@@](O)(Cn2ccc(-c3ccccc3)cc2=O)C2(CCCC2)C1)N1CCNC[C@H]1c1cc(F)ccc1F
46 | < 500 nM | O=C(N1CC[C@@](O)(Cn2cnc(-c3ccsc3)cc2=O)C2(CCCC2)C1)N1CCNC[C@H]1c1ccccc1
47 | < 500 nM | O=C(N1CC[C@@](O)(Cn2cnc(-c3ccccc3)cc2=O)C2(CCCC2)C1)N1CCSC[C@H]1c1cc(F)ccc1F
48 | < 500 nM | O=C(N1CC[C@@](O)(Cn2cnc(C3CC3)cc2=O)C2(CCCC2)C1)N1CCNC[C@H]1c1cc(F)ccc1F
49 | < 500 nM | O=C(N1CC[C@@](O)(Cn2cnc(-c3ccccc3C(F)F)cc2=O)C2(CCCC2)C1)N1CCNC[C@H]1c1ccccc1
50 | < 500 nM | O=C(N1CC[C@@](O)(Cn2cnc(N3CC4CC4C3)cc2=O)C2(CCCC2)C1)N1CCNC[C@H]1c1cc(F)ccc1F (stereo partly specified)
51 | < 500 nM | O=C(N1CC[C@@](O)(Cn2cnc(-c3ccccc3)cc2=O)C2(CCCC2)C1)N1CCNC[C@H]1c1cccc(F)c1F
52 | < 500 nM | O=C(N1CC[C@@](O)(Cn2cnc(-c3ccccc3)cc2=O)C2(CCCC2)C1)N1CCNC[C@H]1c1ccc(F)cc1
53 | < 500 nM | COc1ccc(F)cc1-c1cc(=O)n(C[C@]2(O)CCN(C(=O)N3CCNC[C@H]3c3ccccc3)CC23CCCC3)cn1
54 | < 500 nM | O=C(N1CC[C@@](O)(Cn2cnc(-c3ccccc3)cc2=O)C2(CCCC2)C1)N1CCS(=O)(=O)C[C@H]1c1cc(F)ccc1F
55 | < 500 nM | O=C(N1CC[C@@](O)(Cn2cnc(-c3cccc(F)c3F)cc2=O)C2(CCCC2)C1)N1CCNC[C@H]1c1ccccc1
56 | < 500 nM | O=C(N1CC[C@@](O)(Cn2cnc(-c3ccc4c(c3)CCO4)cc2=O)C2(CCCC2)C1)N1CCNC[C@H]1c1ccccc1
